One experiment addresses 5-hydroxytryptamine receptor 1A (Bos taurus). As to the kind of experiment: Ability to displace [3H]-DPAT from 5-hydroxytryptamine 1A receptor in homogenates of bovine hippocampus.
One may read the Ki as a measure of affinity in units of concentration, obtained from inhibition or displacement. A high value points to a looser hold on the target. Compound `CCCN(CCC)C1Cc2cccc3oc(=O)n(c23)C1` (stereo not given) came in with an inhibitory constant (Ki) of more than 1 µM. Same read-out and setting: with `CCCN(CCC)C1Cc2cccc3nc(SC)n(c23)C1` (stereo not given) the figure was 0.173 µM.

For `CCCN(CCC)C1Cc2cccc3ncn(c23)C1` (stereo not given), affinity was put at a Ki of 0.827 µM. Against the preceding compound, the Ki is about 4.8-fold higher. For `O=c1[nH]c2cccc3c2n1CC(N(CC1CC1)CC1CC1)C3` (stereo not given), the inhibitory constant (Ki) amounted to 0.095 µM. Compared with the last compound, the Ki is about 8.7-fold lower. `CCCN(CCC)C1Cc2cccc3c2N(C1)C(=O)CN3` (stereo not given) returned an inhibition constant (Ki) of 0.049 µM.

Regarding `CCCN(CCC)C1Cc2cccc3c2N(C1)C(=O)CC3` (stereo not given), the affinity corresponds to a Ki of 0.0024 µM. Compared with the last compound, the Ki is about 20-fold lower. Still for that read-out and setting: then `CCCN(CCC)C1Cc2cccc3c2N(C1)C(=O)C3` (stereo not given), with 0.108 µM; and `CCCN(CCC)C1Cc2cccc3c2N(CC3)C1` (stereo not given), with 0.013 µM.

As for `CCCN(CCC)C1Cc2cccc3ccn(c23)C1` (stereo not given), the affinity corresponds to a Ki of 0.252 µM. The compound `CCCN(CCC)C1Cc2cccc3nc(C)n(c23)C1` (stereo not given) registered a Ki of 4.49 µM. Consider `O=c1[nH]c2cccc3c2n1CC(NCC1CC1)C3` (stereo not given), for which the Ki was 0.084 µM. `CCCN(CCC)C1Cc2cccc3c2N(CCC3)C1` (stereo not given): the Ki worked out at 0.105 µM. `CCCN(CCC)C1Cc2cccc3[nH]c(=O)c(=O)n(c23)C1` (stereo not given): the inhibition constant (Ki) is more than 1 µM.

Biological target in another experiment: not listed separately
As to the kind of experiment: Compound was evaluated for its ability to displace [3H]DPAT from 5-HT1A receptor in homogenates of bovine hippocampus.
In the case of `CCCN(CCC)C1Cc2cccc3c2n(c(=O)n3C)C1` (stereo not given), the Ki stood at 0.124 µM. As for `CCCCNC1Cc2cccc3[nH]c(=O)n(c23)C1` (stereo not given), the Ki is more than 1 µM.
